Measurements from US20050171424A1, “Methods for imaging the lymphatic system using dendrimer-based contrast agents” (The Gov. of the USA as rep. by the Secretary of the Dept. …, priority 2004, published 2005).

Columns and labels:
[1] = test system: deep lymphatic system; assay: Whole-body dynamic 3D-micro-MR lymphangiography of normal mice (Example 2); format: in vivo; details: for Number of Mice in Which the Thoracic Duct was Visualized/Number of Mice Examined: Normal Mice, 0.1 μmolGd intracutaneously into four middle phalanges; for Axillary lymph node-to-background (muscle) signal intensity ratio, comparison between agents: T1-weighted signal, P<0.01, FIG. 9A; for Axillary lymph node-to-background (muscle) signal intensity ratio, comparison between agents / Axillary lymph node-to-liver signal intensity ratio, comparison between agents: all time points examined; for Axillary lymph node-to-liver signal intensity ratio, comparison between agents: P<0.01, FIG. 9B; for Visualization of the deep lymph nodes: normal mice, 10 to 45 min after intracutaneous injection, FIGS. 7, 8
Protocol: (§1) The mice were anesthetized with 1.15 mg sodium pentobarbital (Dainabot, Osaka, Japan) i.p., and then injected intracutaneously with 0.1 μmolGd of PAMAM-G8, DAB-G5, PAMAM-G4, Gadomer-17, or GPDM into four middle phalanges in all four extremities. Dynamic micro-MR images were obtained using a 1.5-Tesla superconductive magnet unit (Signa LX, General Electric Medical System, Milwaukee, Wis.) with a round birdcage type coil of 3 cm diameter fixed by a custom-made coil holder. Four to eight female mice (7 weeks old, 18-21 g body weight) in each group were used and each contrast agent was prepared at least three separate times for these imaging studies. The mice were wrapped with gauze to stabilize their body temperature and were placed at the center of the coils.
(§2) A 3D-fast spoiled gradient echo [3D-fastSPGR (efgre3d package; Signa Horizon, GE); repetition time/echo time 28.5/7.9 msec; inversion time 65 msec; 31.2 kHz, flip angle 30°, four excitations; 40 slice-encoding steps; scan time 7 min 36 seconds] with chemical shift fat-suppression was used 10, 20, 30, and 45 min after injection of the contrast agents. The coronal images were reconstructed with 0.6-mm section thickness at every 0.3-mm. The FOV was 6×3 cm and the size of the matrix was 512×256. The intensities of the regions of interest (ROIs) (for example, a whole axillary lymph node, and the liver) were measured, and then the time-intensity curves analyzed. The data were expressed as the axillary lymph node-to-muscle and the axillary lymph node-to-liver ratios. The slice data were processed into 3D images using the MIP method with the same window and level (window 3500 and level 2300) (Advantage Windows, General Electric Medical System). Two board-certified radiologists separately read a set of stereo views of 3D-MRL for all studies, and estimated the visualization of the thoracic duct. After imaging, the mice were sacrificed by carbon dioxide inhalation.
Statistical analyses were performed using either Student's t-test or a one-way analysis of variance (ANOVA), with a pairwise comparison using the Bonferroni method for signal intensity curves (Statview; SAS Institute Inc., Cary, N.C.).

[2] = Distribution and survival properties of the dendrimer conjugates; details: in vivo
[3] = test system: lymph nodes and lymphatic vessels of IL-15 transgenic mice; assay: 3D-micro-MRL in IL-15 transgenic lymphoproliferative/neoplastic disease model; format: in vivo; details: 45 minutes after injection, FIGS. 11, 15A
Protocol: Eight- to 10-month old IL-15 transgenic mice (on a C57BL6 background) were used as a chronic lymphoproliferative/neoplastic disease model because they manifested selective expansion of NK, CD8^+NK-T, γδIELs, and CD8 T cells in the periphery. Most of the lymph nodes collected from an aged IL-15 transgenic mouse were enlarged in size. The lesion of proliferated monoclonal lymphocytes often involved the lung and the subcutaneous lymphatic tissue.
as §1
as §2, with “The FOV was 6×3 cm and the size of the matrix was 512×256.” left out, “The slice data were processed into 3D images using the MIP method with the same window and level (window 3500 and level 2300) (Advantage Windows, General Electric Medical System).” left out, “After imaging, the mice were sacrificed by carbon dioxide inhalation.” left out

[4] = test system: draining lymph nodes and lymphatic vessels; assay: 3D dynamic mammo-lymphangiograms after sequential injection of GPDM and PAMAM-G6 into the mammary gland; format: in vivo, athymic nu/nu mice; details: 0.15 μmol Gd into mammary gland; GPDM imaged at 12, 24, 36 min, then PAMAM-G6 injected 36 minutes following GPDM
Protocol: Mice were anesthetized with 1.15 mg sodium pentobarbital (Dainabot, Osaka, Japan), and then injected with 0.15-0.24 μmol Gd/5-8 μL of the PAMAM-G6 contrast agent into normal mammary glands or mammary tissue surrounding a tumor (peritumorally). Dynamic micro-MR images were obtained using a 1.5-Tesla superconductive magnet unit (Signa LX, General Electric Medical System, Milwaukee, Wis.) with a birdcage type coil of 3 cm diameter fixed by a custom made coil holder. [Single and double “breast coils” used for imaging breasts in humans are commercially available, for example, from GE Medical Systems (Milwaukee, Wis.) and are routinely available in outpatient MRI centers] The mice were wrapped with gauze to stabilize their body temperature and were placed at the center of the coils. Athymic nu/nu mice (n=4) were anesthetized and injected with 0.15 μmol Gd of GPDM into the mammary gland, and images were taken 12, 24, and 36 min after injection. Following these three images, these mice were subsequently injected with 0.15 μmol Gd of PAMAM-G6 contrast agent in the mammary gland, and images were taken at 12 and 24 min post-injection of the PAMAM-G6 contrast agent (at 48 and 60 min post-injection of GPDM).

[5] = test system: deep lymph nodes, thoracic duct and lymphatic vessels; assay: Whole-body 3D-micro-MR lymphangiography of normal mice, PAMAM-G8 versus GPDM (Example 3); format: in vivo; details: intracutaneous injection, 0.05 mmolGd/kg (FIG. 13)
Protocol: as §1, §2
In this example, the PAMAM-G8 contrast agent is compared to GPDM. PAMAM-G8 was prepared as described in Example 2, and GPDM was purchased (Schering AG, Berlin, Germany). Animal models, administration of the contrast agents, and 3D-micro-MRL were as described in Example 2.

Compound: Gadomer-17 [reference compound]
- Number of Mice in Which the Thoracic Duct was Visualized/Number of Mice Examined ([1]; 10 min): 2/5
- Number of Mice in Which the Thoracic Duct was Visualized/Number of Mice Examined ([1]; 20 min): 2/5
- Number of Mice in Which the Thoracic Duct was Visualized/Number of Mice Examined ([1]; 30 min): 1/5
- Number of Mice in Which the Thoracic Duct was Visualized/Number of Mice Examined ([1]; 45 min): 1/5
- Axillary lymph node-to-background (muscle) signal intensity ratio, comparison between agents [1]: significantly higher than that acquired with GPDM
- Axillary lymph node-to-liver signal intensity ratio, comparison between agents [1]: nearly equivalent, but were significantly higher than that measured with GPDM
- Visualization of the deep lymph nodes [1]: allowed visualization of the deep lymph nodes, albeit not as clearly and brightly as the dendrimer-based agents

Compound: PAMAM-G4D-(Gd-1B4M)64 dendrimer conjugate
- Distribution within the lymphatic system [2]: tend to accumulate in the lymph nodes rather than the vessels
- Survival in the blood circulation and excretion [2]: short survival in the blood circulation due to a rapid renal excretion without significant retention in other organs
- Number of Mice in Which the Thoracic Duct was Visualized/Number of Mice Examined ([1]; 10 min): 4/5
- Number of Mice in Which the Thoracic Duct was Visualized/Number of Mice Examined ([1]; 20 min): 4/5
- Number of Mice in Which the Thoracic Duct was Visualized/Number of Mice Examined ([1]; 30 min): 3/5
- Number of Mice in Which the Thoracic Duct was Visualized/Number of Mice Examined ([1]; 45 min): 2/5
- Axillary lymph node-to-background (muscle) signal intensity ratio, comparison between agents [1]: significantly higher than that measured with Gadomer-17 and GPDM
- Axillary lymph node-to-liver signal intensity ratio, comparison between agents [1]: significantly higher than that acquired with PAMAM-G8, DAB G-5, or Gadomer-17

Compound: DAB-Am-128-(Gd-1B4M)128 dendrimer conjugate [DAB-G5]
- Distribution within the lymphatic system [2]: tend to accumulate in the lymph nodes rather than the vessels
- Lymph node findings on 3D-micro-MRL [3]: considerable multiple lymph node swellings with central filling defects
- Number of Mice in Which the Thoracic Duct was Visualized/Number of Mice Examined ([1]; 10 min): 3/5
- Number of Mice in Which the Thoracic Duct was Visualized/Number of Mice Examined ([1]; 20 min): 2/5
- Number of Mice in Which the Thoracic Duct was Visualized/Number of Mice Examined ([1]; 30 min): 0/5
- Number of Mice in Which the Thoracic Duct was Visualized/Number of Mice Examined ([1]; 45 min): 0/5
- Axillary lymph node-to-background (muscle) signal intensity ratio, comparison between agents [1]: significantly higher than that obtained with either PAMAM-G8 or PAMAM-G4
- Axillary lymph node-to-liver signal intensity ratio, comparison between agents [1]: nearly equivalent, but were significantly higher than that measured with GPDM

Compound: CNC[C@H](O)[C@@H](O)[C@H](O)[C@H](O)CO.CNC[C@H](O)[C@@H](O)[C@H](O)[C@H](O)CO.O=C([O-])CN(CCN(CC(=O)[O-])CC(=O)O)CCN(CC(=O)[O-])CC(=O)O.[Gd+3] [GPDM, gadopentetate dimeglumine, reference compound]
- Visualization of draining lymph nodes and lymphatic vessels (FIG. 3) [4]: not well visualized
- Image enhancement ([1]; 45 minutes after injection, FIG. 8B): Virtually no image enhancement
- Number of Mice in Which the Thoracic Duct was Visualized/Number of Mice Examined ([1]; 10 min): 2/5
- Number of Mice in Which the Thoracic Duct was Visualized/Number of Mice Examined ([1]; 20 min): 0/5
- Number of Mice in Which the Thoracic Duct was Visualized/Number of Mice Examined ([1]; 30 min): 0/5
- Number of Mice in Which the Thoracic Duct was Visualized/Number of Mice Examined ([1]; 45 min): 0/5
- Visualization of the deep lymph nodes [1]: did not allow most of the lymph nodes to be visualized even at early times
- Visualization of deep lymph nodes throughout the body [5]: but not with GPDM
